Results as given in patent US20140357512A1, “HISTONE DEACETYLASE (HDAC) BIOMARKERS IN MULTIPLE MYELOMA” (priority 2013, published 2014).

System: human myeloma cell line MM.1S
Experiment: SILAC acetylated-lysine peptide profiling, HDAC inhibitor vs DMSO (light/heavy ratio)
Format: cell-based
Excerpt: An embodiment of the invention comprises utilizing the SILAC method in order to quantitate changes in protein expression between two or more populations of cells. The SILAC method is a technique based on mass spectrometry that detects differences in protein abundance among samples using non-radioactive isotopic labeling. The SILAC method is known in the art, and described in detail in Ong et al., “Stable Isotope Labeling by Amino Acids in Cell Culture, SILAC, as a Simple and Accurate Approach to Expression Proteomics”, Molecular & Cellular Proteomics, vol. 1, pp. 376-386 (2002), which is incorporated herein by reference in its entirety.
Briefly, the SILAC method involves growing two populations of cells in cell culture. The first population of cells is grown in growth media containing normal amino acids (“normal media”). The second population of cells is grown in media lacking a standard essential amino acid (such as lysine), but is then supplemented with a non-radioactive, isotopically labeled form of that essential amino acid (such as lysine labeled with ^13C atoms, rather than normal ^12C atoms), which is called “heavy media”. When the two populations of cells are each growing in the medium, they incorporate the amino acids into all of their proteins. The growth of cells maintained in the heavy media is no different from that in normal media. All peptides containing the heavy amino acids are heavier than their normal counterparts. The cells from each of the two populations of cells are lysed. The lysates from each of the two cell populations are then combined. The combined cell lysates are then analyzed by mass spectrometry. Pairs of chemically identical peptides of different stable isotope composition can be differentiated in a mass spectrometer due to their difference in mass. The ratio of peak intensities in the mass spectrum for such peptide pairs reflects the abundance ratio for the two proteins.
This example describes SILAC studies that were performed to compare the effects of three different HDAC inhibitors (Compound A, Compound B, and tubastatin A) to a control on a human multiple myeloma cell line. The HDAC inhibitors were also compared amongst themselves to determine differences in their effects.
A human myeloma cell line MM.1S was grown using either ^12C (light) or ^13C (heavy) lysine containing culture medium. The “heavy” cells were treated with DMSO as the control, and the “light” cells were treated with a single HDAC inhibitor at 37° C. for 6 hours. The heavy and light cells were lysed, and the lysates were mixed in 1:1 ratio and digested with the protease trypsin. The acetylated lysine containing peptides (due to the action of the HDAC inhibitor) in the digested peptide pool were captured by a non-specific anti-acetylated lysine antibody cocktail (the antibodies identify both light and heavy acetylated peptides), and subjected to mass spectrometry analysis in order to identify thousands of individual peptides.
Thousands of peptides were identified in pairs (^12C and ^13C) due to their known mass differences. The amino acid sequence and quantitative ratio (Light/Heavy) of a given peptide in two differentially treated cell lysates were then determined and annotated with their possible protein (gene) sources.
As stated above, three HDAC inhibitors (Compound A, Compound B, and Tubastatin A) were used. Thus, the SILAC method was performed three times, with a different HDAC inhibitor compared to a control each time. Accordingly, there are three pairs of quantitative data in the table below, i.e., Compound A:DMSO, Compound B:DMSO, and Tubastatin A:DMSO. A cut-off of 1.30 fold of change (increase or decrease) was then used to determine “changed” or “+” in the table, and any peptides with a fold of change less than 1.3 fold were determined to be “unchanged” or “0” in the table. Those peptides that were not identified were marked as “NA” in the table. […]

Structure (SMILES): O=C(CCCCCCNC(=O)c1cnc(N(c2ccccc2)c2ccccc2)nc1)NO [Compound A, 2-(diphenylamino)-N-(7-(hydroxyamino)-7-oxoheptyl)pyrimidine-5-carboxamide]
- light to heavy ratio (L/H ratio), log 2 scale, acetylated peptide KLQK(ac)AALLK (SEQ ID NO: 806) (Ribosomal protein L14 variant [132], gene RPL14, drug:DMSO): 1.00
- light to heavy ratio (L/H ratio) of acetylated peptide […](ac)R (SEQ ID NO: 334) (S1 IF1 type family protein [56], EIF1AXP1, drug:DMSO): 0.00 log 2
- L/H ratio of acetylated peptide LAELK(ac)QECLAR (SEQ ID NO: 94) (SARNP 17], log 2 scale, drug vs DMSO): 0.00
- L/H ratio of acetylated peptide (ac)ATETVELHK(ac)LK (SEQ ID NO: 93) (SARNP [10], log 2 scale, drug vs DMSO): 0.00
- L/H ratio of acetylated peptide ANLVFK(ac)EIEK (SEQ ID NO: 95) (SCP2 [438], log 2 scale, drug vs DMSO): 0.00
- L/H ratio of acetylated peptide EGQNWLEK(ac)K (SEQ ID NO: 96) (SEC11C [147], log 2 scale, drug vs DMSO): 0.00
- L/H ratio of acetylated peptide EHTALLK(ac)IEGVYAR (SEQ ID NO: 630, 60S ribosomal protein L35a [29], RPL35A): 0.49 log 2
- L/H ratio of acetylated peptide FNDGSDEK(ac)KK (SEQ ID NO: 631, ATP synthase subunit alpha mitochondrial [239], ATP5A1): 0.49 log 2
- L/H ratio of acetylated peptide FSK(ac)[…] (SEQ ID NO: 632, X-ray repair cross-complementing protein 5 [144], XRCC5): 0.50 log 2
- L/H ratio of acetylated peptide LTCEEEEEK(ac)IFGR (SEQ ID NO: 633, Isoform Short of Probable global transcription activator SNF2L2 [1302], SMARCA2): 0.51 log 2
- L/H ratio of acetylated peptide NDEELNK(ac)LLGR (SEQ ID NO: 634, Histone H2A type 1-B/E [96], HIST1H2AE, HIST1H2AB, HIST1H2AD, HIST1H2AG, HIST1H2AK, HIST1H2AL, HIST1H2AM, HIST1H2AJ, HIST1H2AI): 0.52 log 2
- L/H ratio of acetylated peptide ALEAVFGK(ac)YGR (SEQ ID NO: 635, Heterogeneous nuclear ribonucleoprotein G [30], RBMX): 0.52 log 2
- L/H ratio of acetylated peptide TFK(ac)[…] (SEQ ID NO: 636, 60S ribosomal protein L3 [103], SNORD43, RPL3): 0.52 log 2
- L/H ratio of acetylated peptide YK(ac)[…] (SEQ ID NO: 637, Protein disulfide-isomerase [328], P4HB): 0.52 log 2
- L/H ratio of acetylated peptide NAEK(ac)YAEEDRR (SEQ ID NO: 638, Stress-70 protein mitochondrial [567], HSPA9): 0.52 log 2
- L/H ratio of acetylated peptide […](ac)DR (SEQ ID NO: 639, pyruvate dehydrogenase E1 component subunit alpha somatic form mitochondrial isoform 2 precursor [359], PDHA1): 0.53 log 2
- L/H ratio of acetylated peptide GVDPK(ac)FLR (SEQ ID NO: 640, Ribosomal protein L29 [38], RPL29, RPL29P4): 0.53 log 2
- L/H ratio of acetylated peptide LIK(ac)DGLIIR (SEQ ID NO: 641, 60S ribosomal protein L19 [46], RPL19): 0.53 log 2
- L/H ratio of acetylated peptide HLLPK(ac)IR (SEQ ID NO: 642, 6-phosphogluconate dehydrogenase decarboxylating [253], PGD): 0.53 log 2
- L/H ratio of acetylated peptide LGK(ac)PSLVR (SEQ ID NO: 643, TOB3 [280], ATAD3B): 0.53 log 2
- L/H ratio of acetylated peptide EQIYK(ac)LAK (SEQ ID NO: 644, 40S ribosomal protein S13 [39], RPS13): 0.54 log 2
- L/H ratio of acetylated peptide VEYFLK(ac)WK (SEQ ID NO: 645, Chromobox protein homolog 3 [50], CBX3): 0.54 log 2
- L/H ratio of acetylated peptide HYK(ac)TDFDK (SEQ ID NO: 646, Isocitrate dehydrogenase [NADP] mitochondrial [275], IDH2): 0.54 log 2
- L/H ratio of acetylated peptide EGYAWAEDK(ac)EHCEEYGR (SEQ ID NO: 647, tRNA-splicing ligase RtcB homolog [190], C22orf28): 0.54 log 2
- L/H ratio of acetylated peptide LAYIAHPK(ac)LGK (SEQ ID NO: 648, Ribosomal protein L29 [103], RPL29, RPL29P4): 0.55 log 2
- L/H ratio of acetylated peptide IFSQETLTK(ac)AQILK (SEQ ID NO: 649, Prenylcysteine oxidase 1 [415], PCYOX1): 0.55 log 2
- L/H ratio of acetylated peptide […](ac)QNK (SEQ ID NO: 650, Dihydrolipoyl dehydrogenase mitochondrial [143], DLD): 0.55 log 2
- L/H ratio of acetylated peptide FYVK(ac)DHR (SEQ ID NO: 651, CDGSH iron-sulfur domain-containing protein 1 [37], CISD1): 0.55 log 2
- L/H ratio of acetylated peptide SPVNTK(ac)SLFK (SEQ ID NO: 652, Isoform 1 of DNA-dependent protein kinase catalytic subunit [1057], PRKDC): 0.55 log 2
- L/H ratio of acetylated peptide HIVK(ac)EFK (SEQ ID NO: 653, Stress-70 protein mitochondrial [288], HSPA9): 0.56 log 2
- L/H ratio of acetylated peptide MYKEEGLK(ac)AFYK (SEQ ID NO: 654, Isoform A of Phosphate carrier protein mitochondrial [214], SLC25A3): 0.56 log 2
- L/H ratio of acetylated peptide LDAQVK(ac)ELVLK (SEQ ID NO: 655, Dolichyl-diphospho-oligosaccharide--protein glycosyltransferase subunit 1 precursor [598], RPN1): 0.56 log 2
- L/H ratio of acetylated peptide GYPTLK(ac)[…] (SEQ ID NO: 656, Thioredoxin domain-containing protein 5 [140], TXNDC5, MUTED, MUTED-TXNDC5): 0.56 log 2
- L/H ratio of acetylated peptide […](ac)EFR (SEQ ID NO: 657, Isoform 1 of Clathrin heavy chain 1 [1264], CLTC): 0.57 log 2
- L/H ratio of acetylated peptide YK(ac)EALEQCR (SEQ ID NO: 658, Isoform 2 of Antigen peptide transporter 2 [356], TAP2): 0.57 log 2
- L/H ratio of acetylated peptide YELTGK(ac)FER (SEQ ID NO: 659, Annexin A6 [81], ANXA6): 0.57 log 2
